# Assay results taken from patent US10092540B2, “Method of treatment of a mucopolysaccharidosis” (INVENTIVA, priority 2013, dated 2018).
# Legend:
# male C57B16/J mice [1] = assay: Urinary sulfated GAG levels in tilorone-induced mucopolysaccharidosis mouse model; type: in vivo
# Experimental: (§1) The effect of odiparcil on GAG storage was assessed in a model of mucopolysaccharidosis induced by Tilorone. Chronic administration of tilorone induces GAGs accumulation in various organs including liver, spleen, and kidney (Fischer et al. 1996, 315 (Pt 2):369-375; Prokopek 1991, 42:2187-2191). Tilorone (50 mg/kg/day) was administered via drinking water and odiparcil at 30 or 100 mg/kg/day (corresponding to 15 mg/kg and 50 mg/kg given bid, respectively) was given by oral gavage. Tilorone, odiparcil or vehicle were administered to male C57B16/J mice for 28 days.
# After 21 days of treatment, urine were collected over a 24 hour period by placing the animal in diuresis/metabolic cages. The activity of odiparcil was assessed by quantifying total sulfated GAG levels in the collected urine. After a 10 to 20 fold dilution of the urine in water, sulfated glycosaminoglycan concentrations were measured using Blyscan™ assay from Biocolor (UK) following the manufacturer's instructions. Creatinine levels were also assessed on undiluted urine samples, using the CREATININE (Jaffé) kit (ref 981811) from ThermoFisher according to the manufacturer's instructions. Urinary sulfated GAG levels were normalized by creatinine levels. The data were analyzed statistically by one-way analysis of variance followed by a Tukey's test between all groups: ***: p<0.001 for vehicle/vehicle, and $$$: p<0.001 for tilorone/vehicle.
# male C57B16/J mice [2] = assay: Liver total sulfated GAG levels in tilorone-induced mucopolysaccharidosis mouse model; type: in vivo
# Experimental: as §1
# At the end of the study period, animals were anesthetized and sacrificed. The liver of each animal was then collected, rinsed in physiological serum, blotted in absorbent paper and weighted. It was then cut in pieces and cooled by snap-freezing in liquid nitrogen before being stored at −80° C. The activity of odiparcil was assessed by quantifying total sulfated glycosaminoglycan (GAG) levels in the liver. Sulfated glycosaminoglycan concentration was measured using the Blyscan™ assay from Biocolor (UK) following the manufacturer's instructions. The data were statistically analyzed by one-way analysis of variance followed by a Tukey's test between all groups: ***: p<0.001 vs vehicle/vehicle, and $: p<0.05 vs tilorone/vehicle.
# [3] = tested on: Bovine aortic endothelial cells (ECACC 92010601); assay: 35S-labeled GAG level in culture supernatant of bovine aortic endothelial cells; type: cell-based
# Experimental: Bovine aortic endothelial cells (ECACC 92010601), cultured in 6-well plates, were incubated for 24 h in the presence of ^35S sodium sulfate (10 μci/ml) and of odiparcil solubilized in DMSO at various concentrations (1-10 μM; 0.1% final concentration of DMSO). The culture supernatants were recovered and the cell layers were rinsed with phosphate buffer (PBS). The culture supernatants and the rinsing solutions were combined in tubes. A solution of unlabeled dermatan sulfate (200 μg) was then added in order to serve as an entraining agent. The unincorporated ^35S was then removed by gel filtration on Sephadex G25 columns, the GAGs being eluted in the column exclusion fraction (V0). […] After centrifugation, the alcoholic precipitates were redissolved in 0.9% sodium chloride and then the radioactivity was measured on an aliquot fraction after addition of scintillation fluid in counting vials.
# In order to type the GAGs produced in the supernatants from cells in culture, the redissolved alcoholic precipitates were treated with chondroitinase ABC (Proteus vulgaris) in a proportion of 0.5 mU/μL, for 3 h at 37° C. […] After centrifugation, the alcoholic precipitates were redissolved in 0.9% sodium chloride and then the radioactivity was measured on an aliquot fraction after addition of scintillation fluid in counting vials. […]
# [4] = tested on: Normal human dermal fibroblasts (BIOAlternatives PF2); assay: Total GAG synthesis (3H-glucosamine incorporation) by normal human dermal fibroblasts; type: cell-based; conditions: 10 μM, 72 h
# Experimental: Normal human dermal fibroblasts (BIOAlternatives PF2) were cultured in 96-well plates for 24 h. The culture medium was then replaced with culture medium containing or not containing (control) odiparcil at various concentrations (1 μM, 3 μM, 10 μM) or the TGF-β reference at 10 ng/ml (positive control), and then the cells were incubated for 72 h with addition of the ^3H-glucosamine radioactive label for evaluating total GAG synthesis. At the end of the incubation, a chaotropic buffer was added to the wells of the culture plates in order to lyse the fibroblasts. The total GAGs of the cell lysates were then purified by ion exchange chromatography (Q-Sepharose column). The radioactivity incorporated into the anionic fractions was measured by liquid scintillation.
# [5] = tested on: GM00034B fibroblast cells, isolated from an MPS I patient; assay: Intracellular chondroitin sulfate content (immunofluorescence) in fibroblasts from an MPS I patient; type: cell-based, human; conditions: 72 h
# Experimental: (§2) Human dermal fibroblasts (GM00034B fibroblast cells, isolated from an MPS I patient and GM00031 fibroblast cells, isolated from an unaffected donor) were obtained from the Coriell Institute for Medical Research. Cells were cultured in 96-well plates for 24 h. The culture medium was then replaced with culture medium containing or not containing (vehicle) odiparcil at various concentrations (0.03, 0.1, 0.3, 1, 3, or 10 μM), and then the cells were incubated for 72 h. After incubation, culture media were discarded and the cells were rinsed with PBS, then fixed in PFA 4%. A part of the wells was then incubated for 2 hours at 37° C. with an enzymatic solution of chondroitinase ABC (CSase). After 2 hours of digestion with CSase ABC buffers were discarded, then the cells were rinsed with PBS and permeabilized with PBS-Triton 0.1%. The cells were then labeled using a primary anti-chondroitin sulfate antibody.
# [6] = tested on: GM00031 fibroblast cells, isolated from an unaffected donor; assay: Intracellular chondroitin sulfate content (immunofluorescence) in control fibroblasts; type: cell-based, human; conditions: 72 h
# Experimental: as §2
# [7] = tested on: GM00034B and GM01391 fibroblast cells, isolated from two MPS I patients; assay: CS, DS and HS content by UPLC MSMS in MPS I fibroblasts; type: cell-based, human; conditions: 10 μM, 72 h, FIG. 4
# Experimental: (§3) Human dermal fibroblasts (GM00034B and GM01391 fibroblast cells, isolated from two MPS I patients and GM03181 and GM00615 fibroblasts isolated from two MPS II patients) were obtained from the Coriell Institute for Medical Research. Cells were cultured in T25-flask for 24 h. The culture medium was then replaced with culture medium containing or not containing (vehicle) odiparcil at 10 μM, and then the cells were incubated for 72 h. After incubation, culture media were discarded and the cells were rinsed with PBS, then scrapped in PBS. Cells were then collected by centrifugation and cell pellets were frozen until further analysis. Quantitation of Heparan sulfate (HS), Dermatan sulfate (DS) and Chondroitin sulfate (CS) were performed using UPLC MSMS using a method adapted from method published in Zhang et al. 2015. Glycosaminoglycan values are expressed as mean+SD in μg GAG species per milligram protein.
# [8] = tested on: GM03181 and GM00615 fibroblasts isolated from two MPS II patients; assay: CS, DS and HS content by UPLC MSMS in MPS II fibroblasts; type: cell-based, human; conditions: 10 μM, 72 h, FIG. 4
# Experimental: as §3
# New Zealand Rabbits = assay: Plasma GAG level and disaccharide composition in rabbits after oral administration; type: in vivo, rabbit; conditions: 400 mg/kg oral
# Experimental: Odiparcil was administered Orally to New Zealand Rabbits at the Dose of 400 mg/kg. 4 h after the administration, the animals were anesthetized and blood samples were taken on citrate tubes after catherization of the carotid artery. After centrifugation, the plasma was removed and frozen. The plasma GAGs were isolated after digestion of the proteins with Pronase E, for 48 h at 50° C. The proteins and the protein residues were precipitated by adding trichloroacetic acid and incubated overnight at 4° C. After centrifugation, the supernatants were collected, and then dialyzed against 100 volumes of phosphate buffer, for 48 h at 4° C. A solution of cetylpyridinium chloride (0.1% final concentration) was added to the dialysates in order to precipitate the GAGs, for 24 h at ambient temperature. The samples were then centrifuged and the supernatant was removed. The precipitate obtained was redissolved in 2M sodium chloride and the GAGs were precipitated with 5 volumes of 95% ethanol. After centrifugation, the alcoholic precipitates were redissolved in 0.9% sodium chloride and desalified on a Sephadex G25 column (PD10).
# The plasma GAGs extracted were quantified by assaying the uronic acid content, modified Bitter and Muir carbazole method. The qualitative analysis of the plasma GAG extracts was carried out by HPLC of the disaccharides obtained after enzymatic digestion with chrondroitinase ABC from Proteus vulgaris and chrondroitinase AC from Arthrobacter aurescens.
# [9] = tilorone 50 mg/kg/day via drinking water, vs vehicle/vehicle
compound,measurement,setting,value
"CCN(CC)CCOc1ccc2c(c1)C(=O)c1cc(OCCN(CC)CC)ccc1-2 [Tilorone, reference compound]",GAG levels in urine,male C57B16/J mice [1]; [9],increased
same,GAG levels in the liver,male C57B16/J mice [2]; [9],increased
"Cc1cc(=O)oc2cc(O[C@@H]3SC[C@@H](O)[C@H](O)[C@H]3O)ccc12 [Odiparcil, 4-methyl-2-oxo-2H-1-benzopyran-7-yl-5-thio-β-D-xylopyranoside]",type of GAGs synthesized by the cells in culture (enzymatic digestions),[3]; chondroitinase ABC / heparinase II digestion,predominantly of chondroitin sulfate type
same,level of 35S-labeled GAGs in the culture supernatant,"[3]; odiparcil 1-10 μM, 24 h, FIG. 1","increases, in a dose-dependent manner"
same,total GAG synthesis (dose dependence),"[4]; 1 μM, 3 μM, FIG. 2","stimulates, in a dose-dependent manner"
same,stimulation of total GAG synthesis vs control,[4],+94%
same,intracellular chondroitin sulfate (CS) content,"[5]; 0.03-10 μM, FIG. 3","inhibited, in a dose-dependent manner"
same,IC50 for reduction of intracellular CS,[5],in the μM range
same,extent of reduction of intracellular CS,[5],complete reduction
same,intracellular chondroitin sulfate (CS) content,"[6]; 0.03-10 μM, FIG. 3","inhibited, in a dose-dependent manner"
same,IC50 for reduction of intracellular CS,[6],in the μM range
same,extent of reduction of intracellular CS,[6],complete reduction
same,chondroitin sulfate (CS) content,[7],inhibited
same,dermatan sulfate (DS) content,[7],inhibited
same,heparan sulfate (HS) content,[7],inhibited
same,chondroitin sulfate (CS) content,[8],inhibited
same,dermatan sulfate (DS) content,[8],inhibited
same,heparan sulfate (HS) content,[8],inhibited
same,Δdi-0S (%) nonsulfated disaccharides,"New Zealand Rabbits; rabbit plasma GAGs, 4 h",18.6%
same,Δdi-4S (%) 4-sulfated disaccharides,"New Zealand Rabbits; rabbit plasma GAGs, 4 h",26%
same,Δdi-4S DS (%) 4-sulfated disaccharides (dermatan sulfate component),"New Zealand Rabbits; rabbit plasma GAGs, 4 h",20.5%
same,Δdi-6S (%) 6-sulfated disaccharides (galactosamine-6-sulfate component),"New Zealand Rabbits; rabbit plasma GAGs, 4 h",30.8%
same,Δdi-UA2S (%) 2UA-sulfated disaccharides,"New Zealand Rabbits; rabbit plasma GAGs, 4 h",4.1%
same,factor of increase of plasma GAG level compared with control animals,"New Zealand Rabbits; rabbit, 4 h",5
same,μg UA/ml plasma (plasma GAG level via uronic acid content),"New Zealand Rabbits; rabbit, 4 h after administration",11.4 μg UA/ml
same,statistical significance of effect on urinary sulfated GAG levels vs tilorone/vehicle,"male C57B16/J mice [1]; odiparcil 30 and 100 mg/kg/day, p<0.001",statistically significant at both tested doses
same,sulfated GAG levels in urine (normalized by creatinine),"male C57B16/J mice [1]; odiparcil 30 or 100 mg/kg/day oral gavage with tilorone, urine after 21 days, FIG. 5",increased sulfated GAG levels in urine in a dose-dependent manner
same,statistical significance of effect on total GAG liver content vs tilorone/vehicle,"male C57B16/J mice [2]; odiparcil 100 mg/kg/day, p<0.05",statistically significant
same,tilorone-induced accumulation of liver total GAG levels,"male C57B16/J mice [2]; odiparcil 30 or 100 mg/kg/day oral gavage with tilorone, end of study, FIG. 6",decreased
